Measured values taken from patent US9085570B2, “Substituted benzamides and their uses” (The Board of Trustees of the Leland Stanford Junior …, priority 2010, dated 2015).

tested on: RCC4; assay: XTT cell viability assay in RCC4 cells (VHL-deficient renal carcinoma); assay type: cell-based; conditions: Homo sapiens, 96 h, four days drug exposure
Method: (§1) Cell Culture. RCC4 parental and RCC4 with VHL-reintroduced (RCC4/VHL), SN12C and SN12C-CSCG-VHL shRNA were maintained in DMEM supplemented with 10% FCS.
(§2) Cell Viability Assays. For 2,3-bis[2-methoxy-4-nitro-5-sulfophenyl]-2H-tetrazolium-5-carboxanilide (XTT) assays, five thousand cells were plated in 96-well plates. The next day, vehicle (DMSO) or drug was added by serial dilution. Four days later, media were aspirated, XTT solution (0.3 mg/ml of XTT (Sigma), […] N-methyl dibenxopyrazine methyl sulfate (Simga) in phenol red-free media) was added, and the plates were incubated at 37° C. for 1-2 hours. Metabolism of XTT was quantified by measuring the absorbance at 450 nm IC50s were calculated using linear interpolation. For clonogenic survival assays, three hundred cells were plated per 60 mm tissue culture dish. The cells were allowed to attach overnight and then treated with vehicle or drug for 14 days. Colonies were fixed and stained with crystal violet (0.1% crystal violet in 95% ethanol). All conditions were measured in triplicate and each experiment was done in duplicate or triplicate. To determine necrosis, cells were treated with drug for a given time point. Media and cells were collected, centrifugated, and resuspended in 0.4% trypan blue (Invitrogen). Live and dead cells were counted on a hematocytometer.
(§3) The designation A reflects an IC50 of <1 nM; B reflects an IC50 ranging from 1 to 20 nM; and C is an IC50 of >20 nM. The designation “a” reflects a ratio of RCC4/RCC-VHL+ranging from 1 to ≦10; “b” reflects from 10 to ≦100; “c” reflects a ratio of >100. Compounds I-29 have an IC50 value of ≦10 μM when tested in the above assay.

Row | SMILES | IC50 [nM]
1 | O=C(Nc1cccnc1)c1ccc(CNS(=O)(=O)c2ccc(Cl)nc2)cc1 [II-2, 4-({[(6-Chloro-3-pyridinyl)sulfonyl]amino}methyl)-N-(3-pyridinyl)benzamide] | > 20
2 | Cc1ncc(S(=O)(=O)NCc2ccc(C(=O)Nc3cccnc3)cc2)n1C [II-6, 4-({[(1,2-Dimethyl-1H-imidazol-5-yl)sulfonyl]amino}methyl)-N-(3-pyridinyl)benzamide] | > 20
3 | O=C(Nc1cccnc1)c1ccc(CNS(=O)(=O)c2nnc[nH]2)cc1 [II-7, N-(3-pyridinyl)-4-{[(4H-1,2,4-triazol-3-ylsulfonyl)amino]methyl}benzamide] | > 20

tested on: RCC4 with VHL-reintroduced (RCC4/VHL); assay: XTT cell viability assay in RCC4/VHL cells, selectivity ratio versus RCC4; assay type: cell-based; conditions: Ratio = IC50RCC4/VHL/IC50RCC4
Method: as §1, §2, §3

Row | SMILES | Ratio
4 | O=C(Nc1cccnc1)c1ccc(CNS(=O)(=O)c2cccnc2)cc1 [II-1, N-(3-Pyridinyl)-4-{[(3-pyridylsulfonyl)amino]methyl}benzamide] | a (a ratio of RCC4/RCC-VHL+ranging from 1 to ≦10)
5 | O=C(Nc1cccnc1)c1ccc(CNS(=O)(=O)c2ccc(Oc3ccccc3)nc2)cc1 [II-3, 4-({[(6-Phenoxy-3-pyridinyl)sulfonyl]amino}methyl)-N-(3-pyridinyl)benzamide] | a (a ratio of RCC4/RCC-VHL+ranging from 1 to ≦10)
6 | O=C(Nc1cccnc1)c1ccc(CNS(=O)(=O)c2cccs2)cc1 [II-4, N-(3-Pyridinyl)-4-{[(2-thienylsulfonyl)amino]methyl}benzamide] | a (a ratio of RCC4/RCC-VHL+ranging from 1 to ≦10)
7 | O=C(Nc1cccnc1)c1ccc(CNS(=O)(=O)c2ccsc2)cc1 [II-5, N-(3-Pyridinyl)-4-{[(3-thienylsulfonyl)amino]methyl}benzamide] | a (a ratio of RCC4/RCC-VHL+ranging from 1 to ≦10)

tested on: not given; assay: not given; conditions: not given

Row | SMILES | melting point [°C]
8 | Cc1ccc(S(=O)(=O)Cc2nc(-c3ccc(C(=O)Nc4cccnc4)cc3)oc2C)cc1 [Example 1, 4-(5-Methyl-4-{[(4-methylphenyl)sulfonyl]methyl}-1,3-oxazol-2-yl)-N-(3-pyridinyl)benzamide] | 248 to 250
9 | Cc1ccc(S(=O)(=O)Cc2nc(-c3ccc(C(=O)Nc4ccncc4)cc3)oc2C)cc1 [Example 2, 4-(5-Methyl-4-{[(4-methylphenyl)sulfonyl]methyl}-1,3-oxazol-2-yl)-N-(4-pyridinyl)benzamide] | 229 to 231
10 | Cc1ccc(S(=O)(=O)Cc2nc(-c3ccc(C(=O)N(C)c4cccnc4)cc3)oc2C)cc1 [Example 3, N-Methyl-4-(5-methyl-4-{[(4-methylphenyl)sulfonyl]methyl}-1,3-oxazol-2-yl)-N-(3-pyridinyl)benzamide] | 195 to 197
11 | Cc1ccc(S(=O)(=O)Cc2nc(-c3ccc(C(=O)NCc4ccccn4)cc3)oc2C)cc1 [Example 4, 4-(5-Methyl-4-{[(4-methylphenyl)sulfonyl]methyl}-1,3-oxazol-2-yl)-N-(2-pyridinylmethyl)benzamide] | 154 to 155
12 | Cc1ccc(S(=O)(=O)Cc2nc(-c3ccc(C(=O)NCc4ccncc4)cc3)oc2C)cc1 [Example 6, 4-(5-Methyl-4-{[(4-methylphenyl)sulfonyl]methyl}-1,3-oxazol-2-yl)-N-(4-pyridinylmethyl)benzamide] | 169 to 172
13 | Cc1ccc(S(=O)(=O)Cc2nc(-c3ccc(C(=O)N(C)Cc4cccnc4)cc3)oc2C)cc1 [Example 7, N-Methyl-4-(5-methyl-4-{[(4-methylphenyl)sulfonyl]methyl}-1,3-oxazol-2-yl)-N-(3-pyridinylmethyl)benzamide] | 77 to 80
14 | Cc1ccc(S(=O)(=O)Cc2nc(-c3ccc(C(=O)NCCc4cccnc4)cc3)oc2C)cc1 [Example 8, 4-(5-Methyl-4-{[(4-methylphenyl)sulfonyl]methyl}-1,3-oxazol-2-yl)-N-[2-(3-pyridinyl)ethyl]benzamide] | 207 to 208
15 | Cc1ccc(S(=O)(=O)Cc2nc(-c3ccc(C(=O)NCc4cnccn4)cc3)oc2C)cc1 [Example 9, 4-(5-Methyl-4-{[(4-methylphenyl)sulfonyl]methyl}-1,3-oxazol-2-yl)-N-(2-pyrazinylmethyl)benzamide] | 204 to 206
16 | Cc1ccc(S(=O)(=O)Cc2nc(-c3ccc(C(=O)NCc4nccn4C)cc3)oc2C)cc1 [Example 10, N-[(1-Methyl-1H-imidazol-2-yl)methyl]-4-(5-methyl-4-{[(4-methylphenyl)sulfonyl]methyl}-1,3-oxazol-2-yl)benzamide] | 190 to 192
17 | Cc1ccc(S(=O)(=O)Cc2nc(-c3ccc(C(=O)NCc4cncn4C)cc3)oc2C)cc1 [Example 11, N-[(1-Methyl-1H-imidazol-5-yl)methyl]-4-(5-methyl-4-{[(4-methylphenyl)sulfonyl]methyl}-1,3-oxazol-2-yl)benzamide] | 240 to 242
18 | Cc1oc(-c2ccc(C(=O)NCc3cccnc3)cc2)nc1CS(=O)(=O)c1ccccc1 [Example 12, 4-{5-Methyl-4-[(phenylsulfonyl)methyl]-1,3-oxazol-2-yl}-N-(3-pyridinylmethyl)benzamide] | 196 to 198
19 | Cc1oc(-c2ccc(C(=O)NCc3cccnc3)cc2)nc1CS(=O)(=O)c1ccc(Cl)cc1 [Example 13, 4-(4-{[(4-Chlorophenyl)sulfonyl]methyl}-5-methyl-1,3-oxazol-2-yl)-N-(3-pyridinylmethyl)benzamide] | 220 to 222
20 | Cc1oc(-c2ccc(C(=O)NCc3cccnc3)cc2)nc1CS(=O)(=O)c1ccc(C(C)(C)C)cc1 [Example 14, 4-(4-{[(4-tert-Butylphenyl)sulfonyl]methyl}-5-methyl-1,3-oxazol-2-yl)-N-(3-pyridinylmethyl)benzamide] | 177 to 180
21 | Cc1cc(C)cc(S(=O)(=O)Cc2nc(-c3ccc(C(=O)NCc4cccnc4)cc3)oc2C)c1 [Example 15, 4-(4-{[(3,5-Dimethylphenyl)sulfonyl]methyl}-5-methyl-1,3-oxazol-2-yl)-N-(3-pyridinylmethyl)benzamide] | 188 to 190
22 | Cc1oc(-c2ccc(C(=O)NCc3cccnc3)cc2)nc1CS(=O)(=O)c1ccc(Br)cc1 [Example 16, 4-(4-{[(4-Bromophenyl)sulfonyl]methyl}-5-methyl-1,3-oxazol-2-yl)-N-(3-pyridinylmethyl)benzamide] | 224 to 227
23 | Cc1cccc(S(=O)(=O)Cc2nc(-c3ccc(C(=O)NCc4cccnc4)cc3)oc2C)c1 [Example 17, 4-(5-Methyl-4-{[(3-methylphenyl)sulfonyl]methyl}-1,3-oxazol-2-yl)-N-(3-pyridinylmethyl)benzamide] | 179 to 181
24 | COc1ccc(S(=O)(=O)Cc2nc(-c3ccc(C(=O)NCc4cccnc4)cc3)oc2C)cc1 [Example 18, 4-(4-{[(4-Methoxyphenyl)sulfonyl]methyl}-5-methyl-1,3-oxazol-2-yl)-N-(3-pyridinylmethyl)benzamide] | 189 to 191
25 | COc1cccc(S(=O)(=O)Cc2nc(-c3ccc(C(=O)NCc4cccnc4)cc3)oc2C)c1 [Example 19, 4-(5-Methyl-4-{[(3-methoxyphenyl)sulfonyl]methyl}-1,3-oxazol-2-yl)-N-(3-pyridinylmethyl)benzamide] | 143 to 145
26 | COc1ccc(S(=O)(=O)Cc2nc(-c3ccc(C(=O)NCc4cccnc4)cc3)oc2C)cc1OC [Example 20, 4-(4-{[(3,4-Dimethoxyphenyl)sulfonyl]methyl}-5-methyl-1,3-oxazol-2-yl)-N-(3-pyridinylmethyl)benzamide] | 104 to 108
27 | Cc1oc(-c2ccc(C(=O)NCc3cccnc3)cc2)nc1CS(=O)(=O)c1ccc(F)cc1 [Example 22, 4-(4-{[(4-Fluorophenyl)sulfonyl]methyl}-5-methyl-1,3-oxazol-2-yl)-N-(3-pyridinylmethyl)benzamide] | 218 to 220
28 | Cc1oc(-c2ccc(C(=O)NCc3cccnc3)cc2)nc1CS(=O)(=O)c1ccc(N2CCN(C)CC2)cc1 [Example 23, 4-[5-Methyl-4-({[4-(4-methyl-1-piperazinyl)phenyl]sulfonyl}methyl)-1,3-oxazol-2-yl]-N-(3-pyridinylmethyl)benzamide] | 210 to 215
29 | Cc1oc(-c2ccc(C(=O)NCc3cccnc3)cc2)nc1CS(=O)(=O)c1ccc(N2CCOCC2)cc1 [Example 24, 4-[5-Methyl-4-({[4-(4-morpholinyl)phenyl]sulfonyl}methyl)-1,3-oxazol-2-yl]-N-(3-pyridinylmethyl)benzamide] | 208 to 210
30 | Cc1ccc(S(=O)(=O)Cc2csc(-c3ccc(C(=O)NCc4cccnc4)cc3)n2)cc1 [Example 25, 4-(4-{[(4-Methylphenyl)sulfonyl]methyl}-1,3-thiazol-2-yl)-N-(3-pyridinylmethyl)benzamide] | 178 to 181
31 | Cc1oc(-c2ccc(C(=O)NCc3ccccc3)cc2)nc1CS(=O)(=O)c1ccc(Br)cc1 [Example 27, N-Benzyl-4-(4-{[(4-bromophenyl)sulfonyl]methyl}-5-methyl-1,3-oxazol-2-yl)benzamide] | 234 to 237
32 | O=C(Nc1cccnc1)c1ccc(CNS(=O)(=O)c2ccc(Cl)nc2)cc1 [II-2, 4-({[(6-Chloro-3-pyridinyl)sulfonyl]amino}methyl)-N-(3-pyridinyl)benzamide] | 226 to 228
33 | Cc1ncc(S(=O)(=O)NCc2ccc(C(=O)Nc3cccnc3)cc2)n1C [II-6, 4-({[(1,2-Dimethyl-1H-imidazol-5-yl)sulfonyl]amino}methyl)-N-(3-pyridinyl)benzamide] | 238 to 240
34 | O=C(Nc1cccnc1)c1ccc(CNS(=O)(=O)c2nnc[nH]2)cc1 [II-7, N-(3-pyridinyl)-4-{[(4H-1,2,4-triazol-3-ylsulfonyl)amino]methyl}benzamide] | 266 to 269
